Experimental data from patent publication US12239132B2, “Compounds and methods for increasing soil nutrient availability” (SOUND AGRICULTURE COMPANY, priority 2018, dated 2025).

Tested on: Bacillus megaterium
Test: Phosphate solubilization assay with Bacillus megaterium (liquid NBRIP, malachite green)
Format: cell-based
Details: 25 ug/mL (solvent 50% acetone), NBRIP, 72 h
Experimental: In some aspects, a compound disclosed herein, e.g., AB09, stimulates bacterial phosphate solubilization activity. […] Cultures of B. megaterium were grown in media containing only insoluble phosphorus with and without a compound such as AB09. At the start of the experiment, there was no detectable difference of orthophosphate levels in the growth media alone and media supplemented with B. megaterium and/or AB09. Orthophosphate was measured after 72 hours of bacterial growth. Specifically, A 5 mL culture of B. megaterium was seeded from a single colony into Nutrient Broth (NB) and grown overnight in a 30° C. shaker. The cell pellet was collected by centrifugation, washed twice and resuspended in water. The concentration of B. megaterium was measured using a Nanodrop OD600 reading. B. megaterium was inoculated into liquid NBRIP media, which contains insoluble tricalcium phosphate as its sole phosphorus source. The final concentration of B. megaterium in the NBRIP media was OD600=0.02 ([…]). NBRIP media was supplemented with ML in a 1% DMSO solution to a final concentration of 100 ug/ML or 1% DMSO (both were filter sterilized through a 0.2 uM filter). Cell counts at the start of the experiment (0 hours) and at 72 hours post inoculation were measured using dilution plating. At the experiment start and after 72 hours of growth, 1 mL of culture was collected from the culture tubes. The supernatant was collected by centrifugation (5 min at 13,000 rpm). The cleared supernatant was diluted […] in molecular grade water and used for orthophosphate analysis. The remaining 4 mL of supernatant were collected by centrifugation for pH readings. Orthophosphate was measured using the malachite-green phosphate method (BioAssay Systems Malachite Green Phosphate Assay Kit Catalog No: POMG-25H). Briefly, the sample is mixed with a solution of Malachite Green and molybdate, which forms a green complex with free orthophosphate from the sample. Data are quantified on a plate reader at 620 nm. Unknown samples were run with a standard curve of known concentrations of orthophosphate. […] Phosphate solubilization in NBRIP culture media is shown at experiment start (0 h) and after 72 hours of shaking at 30° C. The left axis corresponds to box plots and whisker plots of the concentration of solubilized phosphate in the bacterial supernatant. The right axis corresponds to the pH of the supernatant. n=7 culture tubes for each B. megaterium with and without ML, and n=3 culture tubes for no bacteria with and without AB09. The malachite green phosphate assay was performed in triplicate. […] In some instances, disclosed herein are experimental culture tubes of B. megaterium growing in NBRIP without ML (AB09; leftmost two tubes) and with 100 ug/mL ML (right three tubes).
A strain of Bacillus megaterium (B. megaterium) was isolated from Iowa field soil and confirmed its ability to solubilize phosphorus by observing a cleared zone (or halo) around B. megaterium colonies when grown on solid media (NBRIP+Agar) containing only in insoluble form of phosphorus, Ca3(PO4)2. Cultures of B. megaterium were then grown in liquid NBRIP (containing only insoluble Ca3(PO4)2) with and without AB09. The growth media supernatant was analyzed for orthophosphate at the start of the experiment (0 h) and after 72 hours of growth by the malachite green quantification method.
FIG. 1A illustrates phosphate solubilization in NBRIP culture media at experiment start (0 h) and after 72 hours of shaking at 30° C. The left axis corresponds to box plots and whisker plots of the concentration of available phosphate (orthophosphate) in the bacterial supernatant. […] The malachite green phosphate assay was performed in triplicate. FIG. 1B illustrates an example of experimental culture tubes of B. megaterium growing in NBRIP without AB09 (leftmost two tubes) and with 100 ug/mL AB09 (right three tubes). […]

CC1=C(C)C(Oc2c(C)occc2=O)OC1=O (stereo not drawn) [SA-002]
phosphate solubilization effect compared to the original AB09 molecule: enhanced phosphate solubilization effect

CC1=CC(Oc2cc(C)oc(=O)c2)OC1=O (stereo not drawn) [SA-004]
phosphate solubilization effect compared to the original AB09 molecule: enhanced phosphate solubilization effect

CCc1occc(=O)c1OC1C=C(C)C(=O)O1 (stereo not drawn) [SA-005]
phosphate solubilization effect compared to the original AB09 molecule: did not differ from AB09
